Measured values from patent publication USRE47689E1, “Compounds for treating spinal muscular atrophy” (PTC Therapeutics, Inc., priority 2011, dated 2019).
Like-named read-outs stand apart in the source and are kept apart here.

Assays:
Smn protein = Smn protein assay in cultured cells (SMN HTRF); format: cell-based, human; conditions: 48 hours; for maximum fold (Fold) increase of Smn protein: SMA patient fibroblast cells, 7-point concentration data, fold increase relative to vehicle control (SMN HTRF); for EC1.5x (concentration giving 1.5-fold Smn protein increase): SMA Type 1 patient fibroblast cells (GM03813), 7-point concentration curve, SMN HTRF, concentration producing 1.5 times Smn protein vs DMSO vehicle control, read-out: EC1.5x for Smn protein expression
How it was run: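 Lysates in RIPA with protease inhibitors are incubated overnight at room temperature with HTRF anti-SMN antibodies. EC1.5x is derived from fold increase in ΔF over vehicle.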

[1] = tested on: SMN2 minigene (full length SMN2 minigene mRNA containing SMN2 exon 7); experiment: SMN2 minigene mRNA splicing RT-qPCR assay in cultured cells; format: cell-based, human; conditions: Homo sapiens, HEK293-H, read-out: EC1.5x for production of full length SMN2 mRNA
How it was run: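 Read-out: full-length (exon 7-included) SMN2 minigene mRNA by multiplex RT-qPCR with GAPDH, efficiency-corrected (1+E)^−Ct, GAPDH-normalized and divided by vehicle. Stably transfected HEK293H cells, 24 h compound exposure, duplicates per concentration. Value is EC1.5x, reported as star ranges.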

[2] = HEK293H cells stably transfected with SMN2-A minigene, 24 hours, 7-point concentration curve, 1.5-fold relative to vehicle-treated cells

SMILES	melting point	maximum fold (Fold) increase of Smn protein (Smn protein)	EC (1.5-fold) [1, 2] [µM]	EC1.5x (concentration giving 1.5-fold Smn protein increase) (Smn protein) [nM]	EC (1.5-fold) ([1]; 24 h) [µM]
C[C@H]1CN(c2ccc3cc(-c4cccc(Cl)c4)c(=O)oc3c2)CCN1 [Compound 509, 3-(3-chlorophenyl)-7-[(3S)-3-methylpiperazin-1-yl]-2H-chromen-2-one]	149 to 151 °C	* (maximum fold increase of ≤1.2)	1 to 3	–	–
Cc1cn2cc(-c3cc4ccc(N[C@@H]5CCN(CCO)C5)cc4oc3=O)nc2c(C)n1 [Compound 732, 3-(6,8-dimethylimidazo[1,2-a]pyrazin-2-yl)-7-{[(3R)-1-(2-hydroxyethyl)pyrrolidin-3-yl]amino}-2H-chromen-2-one]	211 to 219 °C	*** (fold increase between >1.35 and ≤1.5)	< 0.1	< 300	–
Cc1cccn2cc(-c3cc4ccc(N5CCN6CCC5CC6)cc4oc3=O)nc12 [Compound 505, 7-(1,4-diazabicyclo[3.2.2]non-4-yl)-3-(8-methylimidazo[1,2-a]pyridin-2-yl)-2H-chromen-2-one]	278 °C (dec.)	* (maximum fold increase of ≤1.2)	–	–	3 to 30
Cc1ccnc(Nc2cc3ccc(N4CCNCC4)cc3oc2=O)c1 [Compound 62, 3-[(4-methylpyridin-2-yl)amino]-7-(piperazin-1-yl)-2H-chromen-2-one]	182 to 185 °C	* (maximum fold increase of ≤1.2)	1 to 3	–	–
Cc1cn2cc(-c3cc4ccc(CNC(C)C)cc4oc3=O)nc2c(C)n1 [Compound 850, 3-(6,8-dimethylimidazo[1,2-a]pyrazin-2-yl)-7-[(propan-2-ylamino)methyl]-2H-chromen-2-one]	285 to 291 °C	** (fold increase between >1.2 and ≤1.35)	0.3 to 1	–	–
Cc1cn2cc(-c3cc4ccc(N[C@@H]5CCN(C(C)C)C5)cc4oc3=O)nc2c(C)n1 [Compound 733, 3-(6,8-dimethylimidazo[1,2-a]pyrazin-2-yl)-7-{[(3R)-1-(propan-2-yl)pyrrolidin-3-yl]amino}-2H-chromen-2-one]	200 to 207 °C	*** (fold increase between >1.35 and ≤1.5)	< 0.1	–	–
Cc1cn2cc(-c3cc4ccc(N[C@@H]5C[C@H]6CCC[C@@H](C5)N6C)cc4oc3=O)nc2c(C)n1 [Compound 702, 3-(6,8-dimethylimidazo[1,2-a]pyrazin-2-yl)-7-{[(3-exo)-9-methyl-9-azabicyclo[3.3.1]non-3-yl]amino}-2H-chromen-2-one]	279 to 287 °C	* (maximum fold increase of ≤1.2)	–	–	1 to 3
Cc1ccn2cc(-c3cc4ccc(N[C@H]5CCNC5)cc4oc3=O)nc2c1 [Compound 581, 3-(7-methylimidazo[1,2-a]pyridin-2-yl)-7-[(3S)-pyrrolidin-3-ylamino]-2H-chromen-2-one]	243 to 253 °C	* (maximum fold increase of ≤1.2)	0.3 to 1	–	–
C[C@H]1CN(c2ccc3cc(-c4ccc(F)cc4Cl)c(=O)oc3c2)CCN1 [Compound 510, 3-(2-chloro-4-fluorophenyl)-7-[(3S)-3-methylpiperazin-1-yl]-2H-chromen-2-one]	109 to 111 °C	* (maximum fold increase of ≤1.2)	3 to 30	–	–
C[C@@H]1CN(c2ccc3cc(-c4ccc5c(c4)OCCO5)c(=O)oc3c2)C[C@H](C)N1 [Compound 514, 3-(2,3-dihydro-1,4-benzodioxin-6-yl)-7-[(3R,5S)-3,5-dimethylpiperazin-1-yl]-2H-chromen-2-one]	138 to 140 °C	* (maximum fold increase of ≤1.2)	3 to 30	–	–
Cc1cn2cc(-c3cc4ccc(O[C@@H]5CCN(C(C)C)C5)cc4oc3=O)nc2c(C)n1 [Compound 891, 3-(6,8-dimethylimidazo[1,2-a]pyrazin-2-yl)-7-{[(3R)-1-(propan-2-yl)pyrrolidin-3-yl]oxy}-2H-chromen-2-one]	176 to 179 °C	***** (fold increase >1.65)	0.1 to 0.3	300 to 1000	–
Cc1csc(-c2cc3ccc(N4CCN[C@H](C)C4)cc3oc2=O)n1 [Compound 300, 7-[(3R)-3-methylpiperazin-1-yl]-3-(4-methyl-1,3-thiazol-2-yl)-2H-chromen-2-one]	176 °C	* (maximum fold increase of ≤1.2)	–	–	1 to 3

The next lines start with results.

melting point	SMILES	maximum fold (Fold) increase of Smn protein (Smn protein)	EC (1.5-fold) [1, 2] [µM]	EC1.5x (concentration giving 1.5-fold Smn protein increase) (Smn protein) [nM]	EC (1.5-fold) ([1]; 24 h) [µM]
167 to 169 °C	Cc1ccc2nc(-c3cc4ccc(N5CCCC(N(C)C)C5)cc4oc3=O)cn2c1 (stereo not drawn) [Compound 200, 7-[3-(dimethylamino)piperidin-1-yl]-3-(6-methylimidazo[1,2-a]pyridin-2-yl)-2H-chromen-2-one]	* (maximum fold increase of ≤1.2)	3 to 30	–	–
268 to 272 °C	Cc1nc(Cl)cn2cc(-c3cc4ccc(N5CCN6CCC[C@@H]6C5)cc4oc3=O)nc12 [Compound 710, 3-(6-chloro-8-methylimidazo[1,2-a]pyrazin-2-yl)-7-[(8aR)-hexahydropyrrolo[1,2-a]pyrazin-2(1H)-yl]-2H-chromen-2-one]	** (fold increase between >1.2 and ≤1.35)	< 0.1	–	–
264 to 266 °C	Cc1nccn2cc(-c3cc4ccc(N5CCNCC5)cc4oc3=O)cc12 [Compound 555, 3-(1-methylpyrrolo[1,2-a]pyrazin-7-yl)-7-(piperazin-1-yl)-2H-chromen-2-one]	**** (fold increase between >1.5 and ≤1.65)	0.1 to 0.3	< 300	–
266 to 269 °C	CCN1CCN(c2ccc3cc(-c4cn5cc(C)ccc5n4)c(=O)oc3c2)CC1 [Compound 95, 7-(4-ethylpiperazin-1-yl)-3-(6-methylimidazo[1,2-a]pyridin-2-yl)-2H-chromen-2-one]	**** (fold increase between >1.5 and ≤1.65)	1 to 3	< 300	–
223 to 225 °C	Cc1cn2cc(-c3cc4c(F)cc(N5CCCN(C)CC5)cc4oc3=O)nc2c(C)n1 [Compound 614, 3-(6,8-dimethylimidazo[1,2-a]pyrazin-2-yl)-5-fluoro-7-(4-methyl-1,4-diazepan-1-yl)-2H-chromen-2-one]	***** (fold increase >1.65)	< 0.1	< 300	–
260 to 262 °C	Cc1cn2cc(-c3cc4ccc(N5CCN(C6CCC6)CC5)cc4oc3=O)nc2c(C)n1 [Compound 822, 7-(4-cyclobutylpiperazin-1-yl)-3-(6,8-dimethylimidazo[1,2-a]pyrazin-2-yl)-2H-chromen-2-one]	**** (fold increase between >1.5 and ≤1.65)	< 0.1	< 300	–
184 to 186 °C	Cc1nccn2cc(-c3cc4ccc(N5CCN[C@@H](C)C5)cc4oc3=O)cc12 [Compound 566, 7-[(3S)-3-methylpiperazin-1-yl]-3-(1-methylpyrrolo[1,2-a]pyrazin-7-yl)-2H-chromen-2-one]	**** (fold increase between >1.5 and ≤1.65)	< 0.1	< 300	–
223 to 233 °C	Cc1cc(F)cn2cc(-c3cc4ccc(N5CCN(C)CC5)cc4oc3=O)nc12 [Compound 329, 3-(6-fluoro-8-methylimidazo[1,2-a]pyridin-2-yl)-7-(4-methylpiperazin-1-yl)-2H-chromen-2-one]	* (maximum fold increase of ≤1.2)	0.3 to 1	–	–
220 to 228 °C	Cc1cn2cc(-c3cc4ccc(N5CC(N6CCCCC6C)C5)cc4oc3=O)nc2c(C)n1 (stereo not drawn) [Compound 942, 3-(6,8-dimethylimidazo[1,2-a]pyrazin-2-yl)-7-[3-(2-methylpiperidin-1-yl)azetidin-1-yl]-2H-chromen-2-one]	*** (fold increase between >1.35 and ≤1.5)	< 0.1	1000 to 3000	–
282 to 292 °C	Cc1cn2cc(-c3cc4ccc(N5C[C@H]6CNC[C@H]6C5)cc4oc3=O)nc2cn1 [Compound 718, 7-[(3aR,6aS)-hexahydropyrrolo[3,4-c]pyrrol-2(1H)-yl]-3-(6-methylimidazo[1,2-a]pyrazin-2-yl)-2H-chromen-2-one]	**** (fold increase between >1.5 and ≤1.65)	< 0.1	< 300	–
249 to 251 °C	CCCN1CCN(c2ccc3cc(-c4cn5cccc(C)c5n4)c(=O)oc3c2)CC1 [Compound 101, 3-(8-methylimidazo[1,2-a]pyridin-2-yl)-7-(4-propylpiperazin-1-yl)-2H-chromen-2-one]	** (fold increase between >1.2 and ≤1.35)	1 to 3	–	–
